Test results from ChEMBL document CHEMBL1122882, “3,4-O-diacetylisoproterenol. Preparation, structure proof, and beta-receptor effect” (1985).

Species: Rattus norvegicus
Assay: Evaluated for the efficacy in stimulating cAMP synthesis by beta-1-adrenoceptor in rat cerebral cortex.
Format: functional

Row | Structure (SMILES) | Efficacy
1 | CC(=O)Oc1ccc(C(Cl)CNC(C)C)cc1OC(C)=O (configuration not stated) | 1
2 | CC(=O)Oc1ccc(C(O)CNC(C)C)cc1OC(C)=O (configuration not stated) [DIACETYLISOPROTERENOL] | 1
